Data published in patent US9808470B2, “Estrogenic components for use in the treatment of neurological disorders” (UNIVERSITE DE LIEGE, priority 2012, dated 2017).

Assays:
Format in all cases: in vivo
[1] = Ex.3 neuroprotective HIE rat model: brain weight; conditions: PND14
Description: Animals were then perfused transcardially with 0.9% saline solution at 4° C., and then with 4% paraformaldehyde in a 0.1-mol/L phosphate-buffered saline solution (pH 7.4) at 4° C. The brains were quickly isolated, weighed and immersed in the same fixative solution at 4° C. for 24 hours, dehydrated with a graded series of ethanol and xylene, and embedded in paraffin.
Newborn rat pups were assigned to one of the following 6 groups from postnatal day 4: Sham group (n=24), Vehicle group (n=14), E4 1 mg/kg/per day group (n=11), E4 5 mg/kg/per day group (n=14), E4 10 mg/kg/per day group (n=14), or E4 50 mg/kg/per day group (n=19). From postnatal day 4, rat pups were intraperitoneally injected either vehicle (Vehicle group) or E4 (1, 5, 10, or 50 mg/kg/per day in accordance to the E4 group assignment) or neither vehicle nor E4 (Sham group). At day 7, 30 minutes after last injection, animals were anesthetized with isoflurane (induction, 3.0%; maintenance, 1.5%), and the rat pups from Vehicle and E4 groups passed through surgery encompassing left common carotid artery double ligation and cut. After the procedure, the pups were returned to their dams and were allowed to recover for 1 hour. The pups were then placed in the humidified hypoxic in vivo cabinet (CoyLab, Grass Lake, Mich., USA). Hypoxia was produced by the inhalation of 11%-8% of oxygen balanced by nitrogen at decreased concentration of oxygen for 20 minutes, followed by inhalation of 8% oxygen and 92% nitrogen at constant concentration for 35 minutes. All the manipulations were performed at 37° C. The Sham group went through similar procedures without left common carotid artery ligation followed by hypoxia nor injection. Rat pups recovered with their dams and reared normally until being sacrificed at postnatal day 14.

[2] = test system: intact cells in hippocampus and cortex; test: Ex.8 neuroprotective HIE rat model: intact cell counting
Description: Newborn rat pups were assigned to one of the following 14 groups from postnatal day 4 (FIG. 23(A)): Sham group (n=12), Vehicle group (n=17), 5 mg/kg/day E4 (n=13), 10 mg/kg/day E4 (n=10), 5 mg/kg/day E4+1.6 mg/kg/day PROG (n=11), 10 mg/kg/day E4+1.6 mg/kg/day PROG (n=11), 5 mg/kg/day E4+16 mg/kg/day PROG (n=11), 10 mg/kg/day E4+16 mg/kg/day PROG (n=11), 5 mg/kg/day E4+136 ng//kg/day E2 (n=11), 10 mg/kg/day E4+136 ng/kg/day E2 (n=11), 5 mg/kg/day E4+1.6 mg/kg/day PROG+136 ng/kg/day (n=13) E2, 10 mg/kg/day E4+1.6 mg/kg/day PROG+136 ng/kg/day E2 (n=16), 5 mg/kg/day E4+16 mg/kg/day PROG+136 ng/kg/day E2 (n=11), 10 mg/kg/day E4+16 mg/kg/day PROG+136 ng/kg/day groups (n=13). Intraperitoneal injections of the pups from study groups were performed from postnatal day 4 to postnatal day 7 inclusively. At day 7, 30 minutes after last injection, animals were anesthetized with isoflurane (induction, 3.0%; maintenance, 1.5%), and the rat pups from vehicle and all the other groups, except the sham group, passed through surgery encompassing left common carotid artery double ligation and cut. After the procedure, the pups were returned to their dams and were allowed to recover for 1 hour. The pups were then placed in the humidified hypoxic in vivo cabinet (CoyLab, Grass Lake, Mich., USA). Hypoxia was produced by the inhalation of 11%-8% of oxygen balanced by nitrogen at decreased concentration of oxygen for 20 minutes, followed by inhalation of 8% oxygen and 92% nitrogen at constant concentration for 35 minutes. All the manipulations were performed at 37° C. The Sham group went through similar procedures without left common carotid artery ligation followed by neither hypoxia nor injection. […]
Intact cell counting was performed on hematoxylin-eosin-stained sections of the rat pups brains at magnification 400× in 3 fields of the respective brain area. […] The sections were analyzed with the aid of a microscope (Olympus BX51, Olympus, Tokyo, Japan), an image scanner (DotSlide Digital Virtual Microscopy, Olympus, Germany) and ImageJ software (NIH, US). […]

[3] = Ex.3 neuroprotective HIE rat model: rectal temperature; conditions: E4 1, 5, 10, 50 mg/kg/day ip PND4-7 before HI; 0, 2, 4 h after hypoxia
Description: The rectal temperature of the rat pups was measured with a multipurpose thermometer (BAT-10R, Physitemp Instruments Inc., Clifton, N.J., US) along with a rectal probe (RET-4, BioMedical Instruments, Zollnitz, Germany) at 0, 2, and 4 hours after exposure to hypoxic insult. To keep the variability of the temperature low, measurements of rectal temperature were made in a 25° C. room 15 min after removal of the pups from the nest (except the 1st post-hypoxic measurement which was done immediately). It has been shown that the rectal temperature corresponds very well to the brain core temperature (Thoresen et al. 1996. Arch Dis Child Fetal Neonatal 74: F3-F9, Yager et al. 1993. Pediatr Res 34: 525-529).
Newborn rat pups were assigned to one of the following 6 groups from postnatal day 4: Sham group (n=24), Vehicle group (n=14), E4 1 mg/kg/per day group (n=11), E4 5 mg/kg/per day group (n=14), E4 10 mg/kg/per day group (n=14), or E4 50 mg/kg/per day group (n=19). From postnatal day 4, rat pups were intraperitoneally injected either vehicle (Vehicle group) or E4 (1, 5, 10, or 50 mg/kg/per day in accordance to the E4 group assignment) or neither vehicle nor E4 (Sham group). […]

**Q.** Which brain weight ([1]; 1 mg/kg E4 ip PND4-7 before HI) does the source give for `C[C@]12CC[C@@H]3c4ccc(O)cc4CC[C@H]3[C@@H]1[C@@H](O)[C@@H](O)[C@@H]2O` [E4, 1,3,5(10)-estratrien-3,15α,16α,17β-tetrol] here?
**A.** The brain weight was 1.155 ± 0.022 g.

**Q.** What about the brain weight ([1]; 5 mg/kg E4 ip PND4-7 before HI) of the same compound?
**A.** Its brain weight is 1.181 ± 0.023 g.

**Q.** What about the brain weight ([1]; 10 mg/kg E4 ip PND4-7 before HI) of the same compound?
**A.** Its brain weight is 1.179 ± 0.012 g.

**Q.** And the brain weight ([1]; 50 mg/kg E4 ip PND4-7 before HI)?
**A.** The brain weight was 1.163 ± 0.016 g.

**Q.** And the “number of intact cells per visual field” value ([2]; 5 mg/kg/day E4, SGZ)?
**A.** Its value is 72.10±5.93.

**Q.** And the “number of intact cells per visual field” value ([2]; 10 mg/kg/day E4, DG)?
**A.** Its value is 227.30±14.18.

**Q.** What about the “number of intact cells per visual field” value ([2]; 10 mg/kg/day E4, SGZ) of the same compound?
**A.** Its value is 86.10±5.84.

**Q.** What about the rectal temperature [3] of the same compound?
**A.** Its rectal temperature is “did not affect the body temperature”.
